The source made the active and inactive calls. How the calls were made is not given here.
Test system: CCRIS mutagenicity, Ames/micronucleus/aberration tests
Experiment: CCRIS mutagenicity studies
[1] = Test System: AMES SALMONELLA TYPHIMURIUM, Strain/Indicator: TA98, Metabolic Activation: NONE, Method: PREINCUBATION
[2] = Test System: AMES SALMONELLA TYPHIMURIUM, Strain/Indicator: TA100, Metabolic Activation: NONE, Method: PREINCUBATION
[3] = Test System: AMES SALMONELLA TYPHIMURIUM, Strain/Indicator: TA1535, Metabolic Activation: NONE, Method: PREINCUBATION
[4] = Test System: AMES SALMONELLA TYPHIMURIUM, Strain/Indicator: TA100, Metabolic Activation: NONE, Method: STANDARD PLATE
[5] = Test System: AMES SALMONELLA TYPHIMURIUM, Strain/Indicator: TA98, Metabolic Activation: NONE, Method: STANDARD PLATE

CC(O)C#N (stereo not drawn)
mutagenic call (Test System: AMES SALMONELLA TYPHIMURIUM, Strain/Indicator: TA97, Metabolic Activation: HAMSTER, LIVER, S-9, AROCLOR 1254 (10%), Method: PREINCUBATION): inactive; negative
mutagenic call (Test System: AMES SALMONELLA TYPHIMURIUM, Strain/Indicator: TA97, Metabolic Activation: HAMSTER, LIVER, S-9, AROCLOR 1254 (30%), Method: PREINCUBATION): inactive; negative
mutagenic call (Test System: AMES SALMONELLA TYPHIMURIUM, Strain/Indicator: TA97, Metabolic Activation: NONE, Method: PREINCUBATION): inactive; negative
mutagenic call (Test System: AMES SALMONELLA TYPHIMURIUM, Strain/Indicator: TA97, Metabolic Activation: RAT, LIVER, S-9, AROCLOR 1254 (5%), Method: PREINCUBATION): inactive; negative
mutagenic call (Test System: AMES SALMONELLA TYPHIMURIUM, Strain/Indicator: TA97, Metabolic Activation: RAT, LIVER, S-9, AROCLOR 1254 (10%), Method: PREINCUBATION): inactive; negative
mutagenic call (Test System: AMES SALMONELLA TYPHIMURIUM, Strain/Indicator: TA97, Metabolic Activation: RAT, LIVER, S-9, AROCLOR 1254 (30%), Method: PREINCUBATION): inactive; negative
mutagenic call (Test System: AMES SALMONELLA TYPHIMURIUM, Strain/Indicator: TA98, Metabolic Activation: HAMSTER, LIVER, S-9, AROCLOR 1254 (10%), Method: PREINCUBATION): inactive; negative
mutagenic call (Test System: AMES SALMONELLA TYPHIMURIUM, Strain/Indicator: TA98, Metabolic Activation: HAMSTER, LIVER, S-9, AROCLOR 1254 (30%), Method: PREINCUBATION): inactive; negative
mutagenic call [1]: inactive; negative
mutagenic call (Test System: AMES SALMONELLA TYPHIMURIUM, Strain/Indicator: TA98, Metabolic Activation: RAT, LIVER, S-9, AROCLOR 1254 (10%), Method: PREINCUBATION): inactive; negative
mutagenic call (Test System: AMES SALMONELLA TYPHIMURIUM, Strain/Indicator: TA98, Metabolic Activation: RAT, LIVER, S-9, AROCLOR 1254 (30%), Method: PREINCUBATION): inactive; negative
mutagenic call (Test System: AMES SALMONELLA TYPHIMURIUM, Strain/Indicator: TA100, Metabolic Activation: HAMSTER, LIVER, S-9, AROCLOR 1254 (10%), Method: PREINCUBATION): inactive; negative
mutagenic call (Test System: AMES SALMONELLA TYPHIMURIUM, Strain/Indicator: TA100, Metabolic Activation: HAMSTER, LIVER, S-9, AROCLOR 1254 (30%), Method: PREINCUBATION): inactive; negative
mutagenic call [2]: inactive; negative
mutagenic call (Test System: AMES SALMONELLA TYPHIMURIUM, Strain/Indicator: TA100, Metabolic Activation: RAT, LIVER, S-9, AROCLOR 1254 (5 OR 30%), Method: PREINCUBATION): inactive; negative
mutagenic call (Test System: AMES SALMONELLA TYPHIMURIUM, Strain/Indicator: TA100, Metabolic Activation: RAT, LIVER, S-9, AROCLOR 1254 (10%), Method: PREINCUBATION): inactive; negative
mutagenic call (Test System: AMES SALMONELLA TYPHIMURIUM, Strain/Indicator: TA1535, Metabolic Activation: HAMSTER, LIVER, S-9, AROCLOR 1254 (10%), Method: PREINCUBATION): inactive; negative
mutagenic call (Test System: AMES SALMONELLA TYPHIMURIUM, Strain/Indicator: TA1535, Metabolic Activation: HAMSTER, LIVER, S-9, AROCLOR 1254 (30%), Method: PREINCUBATION): inactive; negative
mutagenic call [3]: inactive; negative
mutagenic call (Test System: AMES SALMONELLA TYPHIMURIUM, Strain/Indicator: TA1535, Metabolic Activation: RAT, LIVER, S-9, AROCLOR 1254 (10%), Method: PREINCUBATION): inactive; negative
mutagenic call (Test System: AMES SALMONELLA TYPHIMURIUM, Strain/Indicator: TA1535, Metabolic Activation: RAT, LIVER, S-9, AROCLOR 1254 (30%), Method: PREINCUBATION): inactive; negative
mutagenic call (Test System: AMES SALMONELLA TYPHIMURIUM, Strain/Indicator: TA1537, Metabolic Activation: HAMSTER, LIVER, S-9, AROCLOR 1254 (30%), Method: PREINCUBATION): inactive; negative
mutagenic call (Test System: AMES SALMONELLA TYPHIMURIUM, Strain/Indicator: TA1537, Metabolic Activation: RAT, LIVER, S-9, AROCLOR 1254 (30%), Method: PREINCUBATION): inactive; negative

Cc1ccc2c3c(cc4ccccc4c13)-c1ccccc1-2
mutagenic call (Test System: AMES SALMONELLA TYPHIMURIUM, Strain/Indicator: TA100, Metabolic Activation: RAT, LIVER, S-9, AROCLOR 1254): active; positive

Cc1ccc(NC(=O)CBr)cc1
mutagenic call (Test System: AMES SALMONELLA TYPHIMURIUM, Strain/Indicator: TA100, Metabolic Activation: MOUSE, LIVER, S-9, AROCLOR 1254, Method: STANDARD PLATE): inactive; negative
mutagenic call [4]: inactive; negative

Cc1nnc(NS(=O)(=O)c2ccc(N)cc2)s1
mutagenic call (Test System: AMES SALMONELLA TYPHIMURIUM, Strain/Indicator: TA98, Metabolic Activation: HAMSTER, LIVER, S-9, AROCLOR 1254, Method: STANDARD PLATE): inactive; negative
mutagenic call [5]: inactive; negative
mutagenic call (Test System: AMES SALMONELLA TYPHIMURIUM, Strain/Indicator: TA98, Metabolic Activation: RAT, LIVER, S-9, AROCLOR 1254, Method: STANDARD PLATE): inactive; negative
mutagenic call (Test System: AMES SALMONELLA TYPHIMURIUM, Strain/Indicator: TA100, Metabolic Activation: HAMSTER, LIVER, S-9, AROCLOR 1254, Method: STANDARD PLATE): inactive; negative
mutagenic call [4]: inactive; negative
mutagenic call (Test System: AMES SALMONELLA TYPHIMURIUM, Strain/Indicator: TA100, Metabolic Activation: RAT, LIVER, S-9, AROCLOR 1254, Method: STANDARD PLATE): inactive; negative
mutagenic call (Test System: AMES SALMONELLA TYPHIMURIUM, Strain/Indicator: TA1535, Metabolic Activation: HAMSTER, LIVER, S-9, AROCLOR 1254, Method: STANDARD PLATE): inactive; negative
mutagenic call (Test System: AMES SALMONELLA TYPHIMURIUM, Strain/Indicator: TA1535, Metabolic Activation: NONE, Method: STANDARD PLATE): inactive; negative
mutagenic call (Test System: AMES SALMONELLA TYPHIMURIUM, Strain/Indicator: TA1535, Metabolic Activation: RAT, LIVER, S-9, AROCLOR 1254, Method: STANDARD PLATE): inactive; negative
mutagenic call (Test System: AMES SALMONELLA TYPHIMURIUM, Strain/Indicator: TA1537, Metabolic Activation: HAMSTER, LIVER, S-9, AROCLOR 1254, Method: STANDARD PLATE): inactive; negative
mutagenic call (Test System: AMES SALMONELLA TYPHIMURIUM, Strain/Indicator: TA1537, Metabolic Activation: NONE, Method: STANDARD PLATE): inactive; negative
mutagenic call (Test System: AMES SALMONELLA TYPHIMURIUM, Strain/Indicator: TA1537, Metabolic Activation: RAT, LIVER, S-9, AROCLOR 1254, Method: STANDARD PLATE): inactive; negative
mutagenic call (Test System: AMES SALMONELLA TYPHIMURIUM, Strain/Indicator: TA1538, Metabolic Activation: HAMSTER, LIVER, S-9, AROCLOR 1254, Method: STANDARD PLATE): inactive; negative
mutagenic call (Test System: AMES SALMONELLA TYPHIMURIUM, Strain/Indicator: TA1538, Metabolic Activation: NONE, Method: STANDARD PLATE): inactive; negative
mutagenic call (Test System: AMES SALMONELLA TYPHIMURIUM, Strain/Indicator: TA1538, Metabolic Activation: RAT, LIVER, S-9, AROCLOR 1254, Method: STANDARD PLATE): inactive; negative
mutagenic call (Test System: MOUSE LYMPHOMA, Strain/Indicator: L5178Y (TK+/TK-), Metabolic Activation: NONE, Method: SUSPENSION/PLATE): inactive; negative. reevaluation of results: negative
mutagenic call (Test System: MOUSE LYMPHOMA, Strain/Indicator: L5178Y (TK+/TK-), Metabolic Activation: RAT, LIVER, S-9, AROCLOR 1254, Method: SUSPENSION/PLATE): inactive; negative. reevaluation of results: equivocal

ClCC(Cl)COCC(Cl)CCl (stereo not drawn)
mutagenic call [1]: inactive; negative
mutagenic call (Test System: AMES SALMONELLA TYPHIMURIUM, Strain/Indicator: TA98, Metabolic Activation: RAT LIVER S-9, AROCLOR 1254 (10%), Method: PREINCUBATION): active; positive
mutagenic call [2]: inactive; negative
mutagenic call (Test System: AMES SALMONELLA TYPHIMURIUM, Strain/Indicator: TA100, Metabolic Activation: RAT LIVER S-9, AROCLOR 1254 (10%), Method: PREINCUBATION): active; positive
mutagenic call [3]: inactive; negative
mutagenic call (Test System: AMES SALMONELLA TYPHIMURIUM, Strain/Indicator: TA1535, Metabolic Activation: RAT LIVER S-9, AROCLOR 1254 (10%), Method: PREINCUBATION): active; positive
mutagenic call (Test System: AMES SALMONELLA TYPHIMURIUM, Strain/Indicator: TA1538, Metabolic Activation: NONE, Method: PREINCUBATION): inactive; negative
mutagenic call (Test System: AMES SALMONELLA TYPHIMURIUM, Strain/Indicator: TA1538, Metabolic Activation: RAT LIVER S-9, AROCLOR 1254 (10%), Method: PREINCUBATION): inactive; negative

ClCc1cccc2cc3ccc4cccc5ccc(c12)c3c45
mutagenic call [5]: active; positive
mutagenic call [4]: active; positive

Source: PubChem BioAssay AID1259407 (Chemical Carcinogenesis Research Information System (CCRIS), 2018)
